Measured values from PubChem BioAssay (NCI).
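In this assay, cells in 96-well plates receive the compound at five concentrations for 48 hours. Endpoints are linearly interpolated between the surrounding concentrations. At the TGI there is no net growth.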

What follows are compounds tested on RXF 393 renal (assay: inhibition of tumour cell growth, NCI panel, 48 h).
For `Cc1ncc(CSc2ccccc2N)c(CO)c1O`, the TGI was over 100 µM.
`COC(=O)CCC1(C)C2CCC1/C(=N/O)C2` (stereo not drawn) was tested, and the TGI was over 100 µM.
Work on `O=C1/C(=C\c2cccc(Oc3ccccc3)c2)S(=O)(=O)C(c2ccccc2)N1c1cc(Cl)ccc1Cl` (stereo not drawn) yielded a TGI of 33.8 µM.
Work on `CCc1nc(N)c2nc(-c3ccc(C#N)cc3)oc2n1` yielded a TGI of over 100 µM.
In the case of `S=C(NCCc1ccccn1)c1nc[nH]c1C(=S)NCCc1ccccn1`, the TGI is reported as 87.9 µM.

What follows are compounds tested on MCF7 breast (assay: inhibition of tumour cell growth, NCI panel, 48 h).
Work on `Cc1ncc(CSc2ccccc2N)c(CO)c1O` yielded a TGI of over 100 µM.
`COC(=O)CCC1(C)C2CCC1/C(=N/O)C2` (stereo not drawn) was tested, and the TGI was over 100 µM.
Compound `O=C1/C(=C\c2cccc(Oc3ccccc3)c2)S(=O)(=O)C(c2ccccc2)N1c1cc(Cl)ccc1Cl` (stereo not drawn) has a TGI of 45.1 µM.
For `CCc1nc(N)c2nc(-c3ccc(C#N)cc3)oc2n1`, the TGI was over 100 µM.
`S=C(NCCc1ccccn1)c1nc[nH]c1C(=S)NCCc1ccccn1` was tested, and the TGI was over 100 µM.

The compounds below were run on SW-620 colon (assay: inhibition of tumour cell growth, NCI panel, 48 h).
With `Cc1ncc(CSc2ccccc2N)c(CO)c1O` the TGI was over 100 µM.
`COC(=O)CCC1(C)C2CCC1/C(=N/O)C2` (stereo not drawn) showed a TGI of over 100 µM.
`O=C1/C(=C\c2cccc(Oc3ccccc3)c2)S(=O)(=O)C(c2ccccc2)N1c1cc(Cl)ccc1Cl` (stereo not drawn) gave a TGI of 10.8 µM.
`CCc1nc(N)c2nc(-c3ccc(C#N)cc3)oc2n1` was tested, and the TGI was over 100 µM.
Compound `S=C(NCCc1ccccn1)c1nc[nH]c1C(=S)NCCc1ccccn1` has a TGI of over 100 µM.

What follows are compounds tested on HS 578T breast (assay: inhibition of tumour cell growth, NCI panel, 48 h).
With `Cc1ncc(CSc2ccccc2N)c(CO)c1O` the TGI was over 100 µM.
In the case of `COC(=O)CCC1(C)C2CCC1/C(=N/O)C2` (stereo not drawn), the TGI is reported as over 100 µM.
`O=C1/C(=C\c2cccc(Oc3ccccc3)c2)S(=O)(=O)C(c2ccccc2)N1c1cc(Cl)ccc1Cl` (stereo not drawn) gave a TGI of 88.1 µM.
With `CCc1nc(N)c2nc(-c3ccc(C#N)cc3)oc2n1` the TGI was over 100 µM.
`S=C(NCCc1ccccn1)c1nc[nH]c1C(=S)NCCc1ccccn1` was tested, and the TGI was 68.1 µM.

What follows are compounds tested on HOP-62 NSCLC (assay: inhibition of tumour cell growth, NCI panel, 48 h).
`Cc1ncc(CSc2ccccc2N)c(CO)c1O` gave a TGI of over 100 µM.
`COC(=O)CCC1(C)C2CCC1/C(=N/O)C2` (stereo not drawn) was tested, and the TGI was over 100 µM.
`O=C1/C(=C\c2cccc(Oc3ccccc3)c2)S(=O)(=O)C(c2ccccc2)N1c1cc(Cl)ccc1Cl` (stereo not drawn) was tested, and the TGI was 43.3 µM.
Work on `CCc1nc(N)c2nc(-c3ccc(C#N)cc3)oc2n1` yielded a TGI of over 100 µM.
In the case of `S=C(NCCc1ccccn1)c1nc[nH]c1C(=S)NCCc1ccccn1`, the TGI is reported as over 100 µM.

These compounds were tested on OVCAR-4 ovarian (assay: inhibition of tumour cell growth, NCI panel, 48 h).
Compound `Cc1ncc(CSc2ccccc2N)c(CO)c1O` has a TGI of over 100 µM.
Work on `COC(=O)CCC1(C)C2CCC1/C(=N/O)C2` (stereo not drawn) yielded a TGI of over 100 µM.
In the case of `O=C1/C(=C\c2cccc(Oc3ccccc3)c2)S(=O)(=O)C(c2ccccc2)N1c1cc(Cl)ccc1Cl` (stereo not drawn), the TGI is reported as over 100 µM.
`S=C(NCCc1ccccn1)c1nc[nH]c1C(=S)NCCc1ccccn1` gave a TGI of over 100 µM.

What follows are compounds tested on KM12 colon (assay: inhibition of tumour cell growth, NCI panel, 48 h).
`Cc1ncc(CSc2ccccc2N)c(CO)c1O` was tested, and the TGI was over 100 µM.
With `COC(=O)CCC1(C)C2CCC1/C(=N/O)C2` (stereo not drawn) the TGI was over 100 µM.
`O=C1/C(=C\c2cccc(Oc3ccccc3)c2)S(=O)(=O)C(c2ccccc2)N1c1cc(Cl)ccc1Cl` (stereo not drawn) was tested, and the TGI was 76.9 µM.
For `CCc1nc(N)c2nc(-c3ccc(C#N)cc3)oc2n1`, the TGI was over 100 µM.
`S=C(NCCc1ccccn1)c1nc[nH]c1C(=S)NCCc1ccccn1` was tested, and the TGI was over 100 µM.

Each compound was assayed on SNB-19 CNS (assay: inhibition of tumour cell growth, NCI panel, 48 h).
`Cc1ncc(CSc2ccccc2N)c(CO)c1O` showed a TGI of over 100 µM.
In the case of `COC(=O)CCC1(C)C2CCC1/C(=N/O)C2` (stereo not drawn), the TGI is reported as over 100 µM.
Compound `O=C1/C(=C\c2cccc(Oc3ccccc3)c2)S(=O)(=O)C(c2ccccc2)N1c1cc(Cl)ccc1Cl` (stereo not drawn) has a TGI of 35.7 µM.
`CCc1nc(N)c2nc(-c3ccc(C#N)cc3)oc2n1` showed a TGI of over 100 µM.
Work on `S=C(NCCc1ccccn1)c1nc[nH]c1C(=S)NCCc1ccccn1` yielded a TGI of over 100 µM.

The compounds below were run on MALME-3M melanoma (assay: inhibition of tumour cell growth, NCI panel, 48 h).
In the case of `Cc1ncc(CSc2ccccc2N)c(CO)c1O`, the TGI is reported as over 100 µM.
Compound `COC(=O)CCC1(C)C2CCC1/C(=N/O)C2` (stereo not drawn) has a TGI of over 100 µM.
Compound `O=C1/C(=C\c2cccc(Oc3ccccc3)c2)S(=O)(=O)C(c2ccccc2)N1c1cc(Cl)ccc1Cl` (stereo not drawn) has a TGI of 42.4 µM.
In the case of `S=C(NCCc1ccccn1)c1nc[nH]c1C(=S)NCCc1ccccn1`, the TGI is reported as over 100 µM.

Each compound was assayed on RPMI-8226 leukemia (assay: inhibition of tumour cell growth, NCI panel, 48 h).
`Cc1ncc(CSc2ccccc2N)c(CO)c1O` was tested, and the TGI was over 100 µM.
`COC(=O)CCC1(C)C2CCC1/C(=N/O)C2` (stereo not drawn) gave a TGI of over 100 µM.
For `O=C1/C(=C\c2cccc(Oc3ccccc3)c2)S(=O)(=O)C(c2ccccc2)N1c1cc(Cl)ccc1Cl` (stereo not drawn), the TGI was over 100 µM.
`CCc1nc(N)c2nc(-c3ccc(C#N)cc3)oc2n1` showed a TGI of over 100 µM.
Compound `S=C(NCCc1ccccn1)c1nc[nH]c1C(=S)NCCc1ccccn1` has a TGI of over 100 µM.

These compounds were tested on MDA-MB-231 breast (assay: inhibition of tumour cell growth, NCI panel, 48 h).
Work on `Cc1ncc(CSc2ccccc2N)c(CO)c1O` yielded a TGI of over 100 µM.
`COC(=O)CCC1(C)C2CCC1/C(=N/O)C2` (stereo not drawn) showed a TGI of over 100 µM.
With `O=C1/C(=C\c2cccc(Oc3ccccc3)c2)S(=O)(=O)C(c2ccccc2)N1c1cc(Cl)ccc1Cl` (stereo not drawn) the TGI was over 100 µM.
In the case of `CCc1nc(N)c2nc(-c3ccc(C#N)cc3)oc2n1`, the TGI is reported as over 100 µM.
Compound `S=C(NCCc1ccccn1)c1nc[nH]c1C(=S)NCCc1ccccn1` has a TGI of over 100 µM.

Each compound was assayed on SK-MEL-28 melanoma (assay: inhibition of tumour cell growth, NCI panel, 48 h).
`Cc1ncc(CSc2ccccc2N)c(CO)c1O` showed a TGI of over 100 µM.
For `COC(=O)CCC1(C)C2CCC1/C(=N/O)C2` (stereo not drawn), the TGI was over 100 µM.
For `O=C1/C(=C\c2cccc(Oc3ccccc3)c2)S(=O)(=O)C(c2ccccc2)N1c1cc(Cl)ccc1Cl` (stereo not drawn), the TGI was 36.7 µM.
Compound `CCc1nc(N)c2nc(-c3ccc(C#N)cc3)oc2n1` has a TGI of over 100 µM.
Compound `S=C(NCCc1ccccn1)c1nc[nH]c1C(=S)NCCc1ccccn1` has a TGI of over 100 µM.

The compounds below were run on A549 NSCLC (assay: inhibition of tumour cell growth, NCI panel, 48 h).
`Cc1ncc(CSc2ccccc2N)c(CO)c1O` was tested, and the TGI was over 100 µM.
For `COC(=O)CCC1(C)C2CCC1/C(=N/O)C2` (stereo not drawn), the TGI was over 100 µM.
`O=C1/C(=C\c2cccc(Oc3ccccc3)c2)S(=O)(=O)C(c2ccccc2)N1c1cc(Cl)ccc1Cl` (stereo not drawn) was tested, and the TGI was over 100 µM.
Work on `CCc1nc(N)c2nc(-c3ccc(C#N)cc3)oc2n1` yielded a TGI of over 100 µM.
`S=C(NCCc1ccccn1)c1nc[nH]c1C(=S)NCCc1ccccn1` gave a TGI of over 100 µM.

Each compound was assayed on DU-145 prostate (assay: inhibition of tumour cell growth, NCI panel, 48 h).
In the case of `Cc1ncc(CSc2ccccc2N)c(CO)c1O`, the TGI is reported as over 100 µM.
Work on `COC(=O)CCC1(C)C2CCC1/C(=N/O)C2` (stereo not drawn) yielded a TGI of over 100 µM.
With `O=C1/C(=C\c2cccc(Oc3ccccc3)c2)S(=O)(=O)C(c2ccccc2)N1c1cc(Cl)ccc1Cl` (stereo not drawn) the TGI was 76.7 µM.
`CCc1nc(N)c2nc(-c3ccc(C#N)cc3)oc2n1` was tested, and the TGI was over 100 µM.
`S=C(NCCc1ccccn1)c1nc[nH]c1C(=S)NCCc1ccccn1` showed a TGI of over 100 µM.
